Among the data in patent US8188078B2 (Sanofi-Aventis, priority 2007, dated 2012) are IC50 and melting point values, retold here.

In series [1] the target is T1, c-MET (Homo sapiens, UniProt P08581).
T1 construct: The recombinant DNA His-Tev-MET (956-1390) in pFastBac(Invitrogen); His (N, cleaved yes); Tev (TEV protease site) (N, cleaved yes); made in house; host or cells: SF21 insect cells (baculovirus, pFastBac)
Kind of series: Test A: HTRF Met test in 96-well format. It counts as biochemical. How it is done: I) Expression and Purification of MET, Cytoplasmic Domain
The recombinant DNA His-Tev-MET (956-1390) in pFastBac(Invitrogen) is transfected in insect cells and after several stages of viral amplification, the final stock of baculovirus is tested for expression of the protein of interest.
After infection for 72 h at 27° C. with the recombinant virus, the SF21 cell cultures are harvested by centrifugation and the cellular deposits are stored at −80° C.
The cellular deposits are resuspended in the lysis buffer (buffer A [50 mM HEPES, pH 7.5, 250 mM NaCl, Glycerol 10%, TECP 1 mM]; +cocktail of protease inhibitors Roche Diagnostics without EDTA, ref 1873580), stirred at 4° C. until homogeneous, then lysed mechanically using apparatus of the “Dounce” type.
After centrifugation, the lysis supernatant is incubated for 2 h at 4° C. with Nickel Chelate resin (His-Trap 6 Fast Flow™, GE HealthCare). After washing with 20 volumes of Tp A, the suspension is packed in a column, and the proteins are eluted with a gradient of buffer B ([…]+290 mM imidazole).
The fractions containing the protein of interest with a view to electrophoretic analysis (SDS PAGE) are collected, concentrated by ultrafiltration (cut-off 10 kDa) and injected in an exclusion chromatography column (Superdex™ 200, GE HealthCare) equilibrated with buffer A.
After enzymatic cleavage of the tag Histidine, the protein is reinjected in a new IMAC Nickel Chelate chromatography column (His-Trap 6 Fast Flow™, GE HealthCare) equilibrated with Buffer A. The fractions eluted with a gradient of buffer B and containing the protein of interest after electrophoresis (SDS PAGE), are finally collected and stored at −80° C.
For the production of autophosphorylated protein, the preceding fractions are incubated for 1 h at room temperature after adding ATP 2 mM, MgCl2 2 mM, and Na3VO4 4 mM. After stopping the reaction with 5 mM of EDTA, the reaction mixture is injected in a HiPrep desalting column (GE HealthCare) equilibrated beforehand with buffer A+Na3VO4 4 mM; the fractions containing the protein of interest (SDS PAGE analysis) are collected and stored at −80° C. The degree of phosphorylation is verified by mass spectrometry (LC-MS), and by peptide mapping.
A) HTRF Met test in 96-well format
In a final volume of 50 μl of enzymatic reaction mixture, final c-MET 5 nM is incubated in the presence of the molecule to be tested (for a final concentration range from 0.17 nM to 10 μM, final DMSO 3%) in buffer MOPS 10 mM pH 7.4, DTT 1 mM, Tween 20 0.01%. The reaction is initiated by the substrate solution to obtain the final concentrations of poly-(GAT) 1 μg/ml, ATP 10 μM and MgCl2 5 mM. After incubation for 10 min at room temperature, the reaction is stopped with a mix of 30 μl to obtain a final solution of Hepes 50 mM pH 7.5, potassium fluoride 500 mM, BSA 0.1% and EDTA 133 mM in the presence of 80 ng Streptavidin 61SAXLB Cis-Bio Int. and 18 ng anti-phosphotyrosine Mab PT66-Europium Cryptate per well. After 2 hours of incubation at room temperature, reading is carried out at 2 wavelengths 620 nm and 665 nm in a reader for the TRACE/HTRF technique and the percentage inhibition is calculated according to the 665/620 ratios.
In general terms: TR-FRET usually uses a lanthanide donor and a delayed reading to cut background.

In series [2] the target is T2, MET (Homo sapiens, UniProt P08581).
T2 construct: endogenous in cells; host or cells: MKN45 cells
T2 sequence (P08581 25-1390): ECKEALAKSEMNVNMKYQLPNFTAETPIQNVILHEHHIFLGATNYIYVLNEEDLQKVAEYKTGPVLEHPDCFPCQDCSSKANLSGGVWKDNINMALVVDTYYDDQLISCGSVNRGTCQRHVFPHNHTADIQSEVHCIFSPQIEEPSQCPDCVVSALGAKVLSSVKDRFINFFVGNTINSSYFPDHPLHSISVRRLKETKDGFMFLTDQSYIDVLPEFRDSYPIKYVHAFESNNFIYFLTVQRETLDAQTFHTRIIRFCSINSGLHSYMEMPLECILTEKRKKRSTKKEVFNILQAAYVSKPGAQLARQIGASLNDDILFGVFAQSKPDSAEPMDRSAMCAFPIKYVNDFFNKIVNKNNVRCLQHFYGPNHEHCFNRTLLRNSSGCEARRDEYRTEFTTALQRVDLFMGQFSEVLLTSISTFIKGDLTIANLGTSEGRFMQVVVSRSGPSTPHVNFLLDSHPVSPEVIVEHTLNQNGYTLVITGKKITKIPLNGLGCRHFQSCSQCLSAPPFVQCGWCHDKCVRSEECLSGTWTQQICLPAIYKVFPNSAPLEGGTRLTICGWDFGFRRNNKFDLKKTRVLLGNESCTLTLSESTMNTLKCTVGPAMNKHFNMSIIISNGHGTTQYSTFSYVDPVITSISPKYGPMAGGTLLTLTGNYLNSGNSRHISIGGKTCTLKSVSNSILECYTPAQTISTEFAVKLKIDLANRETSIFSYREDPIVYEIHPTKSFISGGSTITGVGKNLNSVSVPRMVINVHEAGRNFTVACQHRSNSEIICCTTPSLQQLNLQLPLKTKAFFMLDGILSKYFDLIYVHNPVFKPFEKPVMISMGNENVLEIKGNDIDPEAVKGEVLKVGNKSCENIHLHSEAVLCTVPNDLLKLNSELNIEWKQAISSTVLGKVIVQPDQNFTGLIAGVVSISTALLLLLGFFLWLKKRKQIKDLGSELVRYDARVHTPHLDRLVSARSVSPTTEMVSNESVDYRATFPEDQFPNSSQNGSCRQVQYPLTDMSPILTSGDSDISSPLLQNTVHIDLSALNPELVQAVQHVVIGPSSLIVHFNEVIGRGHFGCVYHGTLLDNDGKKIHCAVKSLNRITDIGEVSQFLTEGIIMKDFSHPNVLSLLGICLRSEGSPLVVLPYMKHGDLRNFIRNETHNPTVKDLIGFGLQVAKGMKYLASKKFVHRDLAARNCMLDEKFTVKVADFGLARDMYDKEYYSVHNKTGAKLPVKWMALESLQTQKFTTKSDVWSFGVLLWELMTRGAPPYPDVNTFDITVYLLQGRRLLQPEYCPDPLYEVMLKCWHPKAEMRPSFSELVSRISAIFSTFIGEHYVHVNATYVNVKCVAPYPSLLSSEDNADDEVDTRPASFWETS
Kind of series: Test C: inhibition of the autophosphorylation of MET, ELISA technique (pppY1230, 1234, 1235), MKN45 cells. The format is cell-based. How it is done: C) Inhibition of the Autophosphorylation of MET; ELISA Technique (pppY1230, 1234, 1235)
a) Cellular lysates: Sow the MKN45 cells in a 96-well plate (Cell coat BD polylysine) at 20 000 cells/well under 200 μl of medium RPMI+10% FCS+1% L-glutamine. Leave to adhere to the incubator for 24 h.
The cells are treated on the day after sowing with the products at 6 concentrations in duplicate for 1 h. At least 3 control wells are treated with the same amount of final DMSO.
Dilution of the products: Stock at 10 mM in pure DMSO—range from 10 mM to 30 μM with steps of 3 of pure DMSO—Intermediate dilutions to 1/50 in culture medium then taking of 10 μl added directly to the cells (200 μl): final range from 10000 to 30 nM.
At the end of incubation, carefully remove the supernatant and rinse with 200 μl of PBS. Then put 100 μl of lysis buffer directly in the wells on ice and incubate at 4° C. for 30 minutes. Lysis buffer: 10 mM Tris, HCl pH7.4, 100 mM NaCl, 1 mM EDTA, 1 mM EGTA, 1% Triton X-100, 10% glycerol, 0.1% SDS, 0.5% deoxycholate, 20 mM NaF, 2 mM Na3VO4, 1 mM PMSF and antiprotease cocktail.
The 100 μl of lysates are transferred to a V-bottomed polypropylene plate and ELISA is performed next or the plate is frozen at −80° C.
b) ELISA PhosphoMET BioSource Kit KH00281
In each well of the plate from the kit, add 70 μl of dilution buffer from the kit+30 μL of cell lysate or 30 μl of lysis buffer for the blank. Incubate for 2 h at room temperature, stirring gently.
Rinse the wells 4 times with 400 μl of washing buffer from the kit. Incubate with 100 μl of anti-phospho MET antibodies for 1 h at room temperature.
Rinse the wells 4 times with 400 μl of washing buffer from the kit. Incubate with 100 μl of anti-rabbit HRP antibodies for 30 minutes at room temperature (except for the wells with chromogen only).
Rinse the wells 4 times with 400 μl of washing buffer from the kit. Add 100 μL of chromogen and incubate for 30 minutes in the dark at room temperature.
Stop the reaction with 100 μl of stop solution. Read at once at […] 0.1 second in the Wallac Victor plate reader.
The products of formula (I) as defined above show cellular activity in this test between 10 nM and 10 μM.
On the technique in general: In an ELISA, binding on a coated surface is turned into a signal by an enzyme label.

Series [3] relates to MKN45 cells. Kind of series: Test D: cellular proliferation by 14C-thymidine pulse, MKN45 cells. The format is cell-based. The conditions noted are these: cell line not stated (HCT116 or MKN45). How it is done: D) Measurement of Cellular Proliferation by 14C-Thymidine Pulse
The cells are sown in Cytostar 96-well plates under 180 μl for 4 hours at 37° C. and 5% CO2: The HCT116 cells at a rate of 2500 cells per well in DMEM medium+10% foetal calf serum+1% of L-glutamine and the MKN45 cells at a rate of 7500 cells per well in RPMI medium+10% foetal calf serum+1% of L-glutamine. After said incubation for 4 hours, the products are added under 10 μl in 20-times concentrated solution according to the method of dilution stated for ELISA. The products are tested at 10 concentrations in duplicate from 10000 nM to 0.3 nM in steps of 3.
After treatment for 72 h, add 10 μl of 14C-thymidine at 10 μCi/ml to obtain 0.1 μCi per well. The incorporation of 14C-thymidine is measured on a Micro-Beta (Perkin-Elmer) after 24 hours of pulse and 96 h of treatment.
All the stages of the test are automated on the BIOMEK 2000 or TECAN stations.

The mark [4] stands for this setting: Homo sapiens, MKN-45, cellular proliferation by 14C-thymidine pulse.

T1 sequence (P08581 956-1390): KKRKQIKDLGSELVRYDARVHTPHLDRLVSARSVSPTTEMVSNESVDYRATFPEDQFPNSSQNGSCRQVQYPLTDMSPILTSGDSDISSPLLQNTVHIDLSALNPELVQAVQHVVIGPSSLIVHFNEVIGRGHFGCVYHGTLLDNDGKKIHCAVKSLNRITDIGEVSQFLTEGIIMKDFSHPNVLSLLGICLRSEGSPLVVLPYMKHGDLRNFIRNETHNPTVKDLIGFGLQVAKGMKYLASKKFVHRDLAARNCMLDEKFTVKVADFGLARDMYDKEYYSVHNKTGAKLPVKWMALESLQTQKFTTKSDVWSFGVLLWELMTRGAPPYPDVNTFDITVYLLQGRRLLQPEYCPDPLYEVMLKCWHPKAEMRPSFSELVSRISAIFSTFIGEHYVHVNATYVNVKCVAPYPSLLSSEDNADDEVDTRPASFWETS

For orientation: IC50 means the point on the concentration scale where inhibition reaches its midpoint. On to `CC(Oc1ccc2nc(NC(=O)NCCN3CCOCC3)sc2c1)c1c(Cl)ccc(F)c1Cl` (single isomer, unassigned) [Example 26, 1-{6-[(1S*)-(2,6-dichloro-3-fluorophenyl)ethoxy]-1,3-benzothiazol-2-yl}-3-(2-morpholin-4-ylethyl)urea], for which the 50% inhibitory concentration (IC50) in series [1] was 100 to 10000 nM; in series [2] it was 500 to 10000 nM.

With `CC(Oc1cc2sc(NC(=O)NCCN)nc2cc1F)c1c(Cl)ccc(F)c1Cl` (single isomer, unassigned) [Example 90, 1-(2-aminoethyl)-3-{6-[(1S*)-1-(2,6-dichloro-3-fluorophenyl)ethoxy]-5-fluoro-1,3-benzothiazol-2-yl}urea], the figures for the IC50 in series [3] (cellular proliferation by 14C-thymidine pulse) and in series [1] were 500 to 10000 nM and below 100 nM, respectively. For the compound `CC(Oc1ccc2nc(NC(=O)NCCC3CCN(Cc4ccccc4)CC3)sc2c1)c1c(Cl)ccc(F)c1Cl` (stereo not shown) [Example 52, 1-[2-(1-benzylpiperidin-4-yl)ethyl]-3-{6-[1-(2,6-dichloro-3-fluorophenyl)ethoxy]-1,3-benzothiazol-2-yl}urea], the IC50 in series [3] (setting [4]) is 500 to 10000 nM; in series [1], below 100 nM; in series [2] it was below 500 nM. As usually defined, the melting point is the temperature, or range, at which the solid turns liquid. `CCN(CC)C(CCOC(N)=O)c1nc2cc(F)c(OC(C)c3c(Cl)ccc(F)c3Cl)cc2s1` (stereo not shown) [Example 70, {6-[1-(2,6-dichloro-3-fluorophenyl)ethoxy]-5-fluoro-1,3-benzothiazol-2-yl}3-(diethylamino)propyl carbamate] came in with a melting point of 188 to 190 °C. Regarding `CCN(CC)C(COC(N)=O)c1nc2cc(F)c(OC(C)c3c(Cl)ccc(F)c3Cl)cc2s1` (stereo not shown) [Example 71, {6-[1-(2,6-dichloro-3-fluorophenyl)ethoxy]-5-fluoro-1,3-benzothiazol-2-yl}2-(diethylamino)ethyl carbamate], the melting point fell in the range of 184 to 186 °C.

`CCN(CC)CCOC(=O)Nc1nc2cc(F)c(OC(C)c3c(Cl)ccc(F)c3Cl)cc2s1` (stereo not shown) [Example 71]: the results for the IC50 in series [3] (setting [4]), in series [1] and in series [2] were 500 to 10000 nM, below 100 nM and 500 to 10000 nM, respectively. `COC(COC(N)=O)c1nc2cc(F)c(OC(C)c3c(Cl)ccc(F)c3Cl)cc2s1` (stereo not shown) [Example 72, {6-[1-(2,6-dichloro-3-fluorophenyl)ethoxy]-5-fluoro-1,3-benzothiazol-2-yl}2-methoxyethyl carbamate] registered a melting point of 200 to 205 °C. In the case of `COCCOC(=O)Nc1nc2cc(F)c(OC(C)c3c(Cl)ccc(F)c3Cl)cc2s1` (stereo not shown) [Example 72], the IC50 in series [3] (setting [4]) was 500 to 10000 nM; in series [1], below 100 nM; in series [2] it was 500 to 10000 nM. Consider `CC(Oc1ccc2nc(C(COC(N)=O)N3CCOCC3)sc2c1)c1c(Cl)ccc(F)c1Cl` (stereo not shown) [Example 74, {6-[1-(2,6-dichloro-3-fluorophenyl)ethoxy]-1,3-benzothiazol-2-yl}2-(morpholin-4-yl)ethyl carbamate], for which the melting point lay within 235 to 240 °C. For the compound `CC(Oc1cc2sc(NC(=O)NCCCC(C)(C)OC(N)=O)nc2cc1F)c1c(Cl)ccc(F)c1Cl` (stereo not shown) [Example 87, {2-[({6-[1-(2,6-dichloro-3-fluorophenyl)ethoxy]-5-fluoro-1,3-benzothiazol-2-yl}carbamoyl)amino]ethyl}2-methylpropan-2-yl carbamate], the melting point worked out at 230 °C. With `CC(Oc1cc2sc(NC(=O)NCCNC(=O)OC(C)(C)C)nc2cc1F)c1c(Cl)ccc(F)c1Cl` (stereo not shown) [Example 87], the half-inhibitory concentration (IC50) in series [3] (setting [4]) was 500 to 10000 nM; in series [1], below 100 nM; in series [2], 500 to 10000 nM. As to `CNC(=O)OC(C)(C)CCCNC(=O)Nc1nc2cc(F)c(OC(C)c3c(Cl)ccc(F)c3Cl)cc2s1` (stereo not shown) [Example 95, {2-[({6-[1-(2,6-dichloro-3-fluorophenyl)ethoxy]-5-fluoro-1,3-benzothiazol-2-yl}carbamoyl)amino]ethyl}2-methylpropan-2-yl methylcarbamate], the melting point lay within 151 to 193 °C.

Regarding `CC(Oc1cc2sc(NC(=O)NC3CC3)nc2cc1F)c1c(Cl)ccc(F)c1Cl` (stereo not shown) [Example 131, 1-cyclopropyl-3-{6-[1-(2,6-dichloro-3-fluorophenyl)ethoxy]-5-fluoro-1,3-benzothiazol-2-yl}urea], the figures for the IC50 in series [3] (setting [4]), in series [1] and in series [2] were below 500 nM, below 100 nM and below 500 nM, respectively.
